# Assay results reported in US20140094465A1, “Compounds as S-Nitrosoglutathione Reductase Inhibitors” (N30 PHARMACEUTICALS, INC., priority 2011, published 2014).
# System: cigarette smoke-induced COPD
# Test: Acute (4 day) cigarette smoke exposure COPD model
# Assay type: in vivo, mouse
# Settings: acute 4 day smoke model
# Protocol: The efficacy of GSNOR inhibitors was assessed in a mouse model of chronic obstructive pulmonary disease (COPD) induced by short duration (4 days or 11 days) of exposure to cigarette smoke. Infiltration of inflammatory cells into the bronchoalveolar lavage fluid (BALF) and BALF levels of chemokines involved in inflammation and tissue turnover/repair were measured to assess the influences of GSNOR inhibitors on some of the early events associated with the initiation and progression of COPD.
# Efficacy of GSNOR inhibitors against COPD was explored using acute (4 day) and subchronic (11 day) models of cigarette smoke-induced COPD in mice. […] In animal models, changes in lung pathology are only evident after extended (several months) duration of exposure to cigarette smoke, thus making chronic models prohibitive as effective screening tools. More recently, models exploring inflammatory responses after short duration (2 weeks or less) of smoke exposure in mice have been utilized as tools for screening efficacy and mechanisms of action of novel therapeutics against COPD. The key roles of inflammation in the initiation and progression of COPD, make these short duration models relevant for initial tests of efficacy of novel therapeutics.
# Female C57Bl/6 mice (N=8 per group) were exposed to cigarette smoke using a whole body exposure chamber. Mice were exposed daily for 4 consecutive days to 4 cycles of smoke from 6 sequential cigarettes (Kentucky 3R4F without filter) with a 30 minute smoke free interval between cycles. GSNOR inhibitors were administered daily via oral dosing at 10 mg/kg/day for 7 days starting 2 days prior to smoke exposure and continuing 1 day post-exposure. The effects of GSNOR inhibitors were assessed by quantitating the numbers of total cells, leukocytes, and leukocytes differentials in the BALF via light microscopy and the levels of BALF chemokines via ELISA at approximately 24 h after the last smoke exposure. The effect of GSNOR inhibitors were compared to vehicle treated controls. The PDE4 inhibitor, roflumilast, was used as the positive control for the study. A group of naïve mice (N=8) was exposed to air and used as a negative control for the study.
compound,measurement,setting,value
O=c1c2ccc(O)cc2oc(C(F)(F)F)c1[C@H]1CC[C@H](C(=O)O)CC1 [IV-25],effects compared with roflumilast,,comparable to or greater than those observed for roflumilast
same,BALF chemokines,oral 10 mg/kg/day for 7 days,restored BALF chemokines towards levels observed in naïve mice
